Results: patent US9913843B2, “Protein kinase C inhibitors and uses thereof” (Rigel Pharmaceuticals, Inc., priority 2012, dated 2018)
Read-outs that look alike come from different tables or passages of the source.

System: PKC mediated IL-2 production in human primary T cells
Test: IL-2 ELISA, human primary T cell, anti CD3+CD28+ (whole cell functional assay for PKC mediated IL-2 production)
Assay type: cell-based
Experimental: Human primary T cells were prepared as follows. Fresh PBMC's from All Cells (Cat # PB002) were re-suspended in RPMI (RPMI-1640 with L-Glutamine; Mediatech, Inc., Herndon Va., cat. #10-040-CM) with 10% FBS and seeded into flasks and incubated at 37° C. for 2 hours to allow the monocytes to adhere. The non-adherent cells were then centrifuged and re-suspended in RPMI medium containing 40 U/ml IL2 and seeded into a flask pre-coated with 1 μg/ml aCD3 and 5 ug/ml aCD28 (Anti-Human CD3, BD Pharmingen Catalog #555336, Anti-Human CD28, Beckman Coulter Catalog #IM1376). The cells were stimulated for 3-4 days, then transferred to a fresh flask and maintained in RPMI (RPMI-1640 with L-Glutamine; Mediatech, Inc., Herndon Va., cat. #10-040-CM) with 10% FBS and 40 U/ml IL-2.
Human primary T cells (100,000 cells per well) were pre-incubated with or without test compound in RPMI-1640 with L-Glutamine and 10% FBS for 1 hour at 37° C. Cells were then stimulated by transferring them to round-bottom 96-well plates pre-coated with 1 μg/ml aCD3 and 5 μg/ml aCD28. For counter assay, cells were instead stimulated by adding 8× stock solutions of PMA and ionomycin in RPMI-1640 with L-Glutamine and 10% FBS (for final concentrations of 0.5 ng/ml PMA and 0.1 μM ionomycin, both from Calbiochem). Cells were incubated at 37° C. for 24 hours before 100 μL supernatants were harvested for quantification of IL-2 by ELISA using Human IL-2 Duoset ELISA Kit from R and D Systems, Cat. # DY202E.
Compounds 1-156 were tested in a whole cell functional assay for PKC mediated IL-2 production as follows. Human primary T cell isolation and culture: Human primary T cells were prepared as follows. Whole blood was obtained from a healthy volunteer, mixed 1:1 with PBS, layered on to Ficoll Hypaque (Amersham Pharmacia Biotech, Piscataway, N.J., Catalog #17-1440-03) in 2:1 blood/PBS:ficoll ratio and centrifuged for 30 minutes at 4° C. at 1750 rpm. The cells at the serum: ficoll interface were recovered and washed twice with 5 volumes of PBS. These freshly isolated human peripheral blood mononuclear cells were cultured in Yssel's medium containing 40 U/ml IL2 in a flask pre-coated with 1 μg/ml aCD3 and 5 μg/ml aCD28 (Anti-Human CD3, BD Pharmingen Catalog #555336, Anti-Human CD28, Beckman Coulter Catalog #IM1376). The cells were stimulated for 3-4 days, then transferred to a fresh flask and maintained in RPMI (RPMI-1640 with L-Glutamine; Mediatech, Inc., Herndon Va., cat. #10-040-CM) with 10% FBS and 40 U/ml IL-2. The primary T-cells were then washed twice with PBS to remove the IL-2.
Primary T cell stimulation and IL2 ELISA: Human primary T cells (100,000 cells per well) were pre-incubated with or without test compound in Yssel's medium for 1 hour at 37° C. Cells were then stimulated by transferring them to round-bottom 96-well plates pre-coated with 1 μg/ml aCD3 and 5 μg/ml αCD28. For counter assay, cells were instead stimulated by adding 8× stock solutions of PMA and ionomycin in Yssels (for final concentrations of 0.5 ng/ml PMA and 0.1 uM ionomycin, both from Calbiochem). Cells were incubated at 37° C. for 24 hours before 100 μL supernatants were harvested for quantification of IL-2 by ELISA using Human IL-2 Duoset ELISA Kit from R and D Systems, Cat. # DY202E.

[1] = 24 h, human primary T cells stimulated with anti-CD3 + anti-CD28, IL-2 by ELISA, read-out: IC50 for blocking IL-2 production
[2] = human primary T cells stimulated with anti-CD3 + anti-CD28, 24 h, IL-2 by ELISA, 8 pt, read-out: IL2 ELISA, Human primary T cell, anti-CD3 + CD28, 8 pt (IC50)

Compound	IC50 [1] [nM]	IC50 [2] [nM]
Cc1ccc(Nc2ncc(C#N)c(NC[C@@H]3CCCN4CCCC[C@H]34)n2)cc1-n1cnnn1 [Compound 117, 4-(((1S,9aR)-octahydro-1H-quinolizin-1-yl)methylamino)-2-(4-methyl-3-(1H-tetrazol-1-yl)phenylamino)pyrimidine-5-carbonitrile]	< 30000	11.7
Cc1nnnn1-c1cc(Nc2nccc(NC[C@@H]3CCCN4CCCC[C@H]34)n2)ccc1F [Compound 49, N2-(4-fluoro-3-(5-methyl-1H-tetrazol-1-yl)phenyl)-N4-(((1S,9aR)-octahydro-1H-quinolizin-1-yl)methyl)pyrimidine-2,4-diamine]	< 30000	897
COc1ccc(Nc2ncc(F)c(NC[C@@H]3CCCN4CCCC[C@H]34)n2)cc1-c1cnco1 [Compound 22, 5-fluoro-N4-(((1S,9aR)-octahydro-1H-quinolizin-1-yl)methyl)-N2-(4-methoxy-3-(oxazol-5-yl)phenyl)pyrimidine-2,4-diamine]	< 30000	697
N#Cc1cc(Nc2ncc(F)c(NC[C@@H]3CCCN4CCCC[C@H]34)n2)ccc1C1CC1 [Compound 1, 5-(4-(((1S,9aR)-octahydro-1H-quinolizin-1-yl)methylamino)-5-fluoropyrimidin-2-ylamino)-2-cyclopropylbenzonitrile]	< 30000	107
CN(C)c1cnc(Nc2ccc(C3CC3)c(C#N)c2)nc1NC[C@@H]1CCCN2CCCC[C@H]12 [Compound 94, 5-(4-(((1S,9aR)-octahydro-1H-quinolizin-1-yl)methylamino)-5-(dimethylamino)pyrimidin-2-ylamino)-2-cyclopropylbenzonitrile]	< 30000	2570
Cc1cnc(Nc2cccc(C#N)c2)nc1NC[C@@H]1CCCN2CCCC[C@H]12 [Compound 66, 3-(4-(((1S,9aR)-octahydro-1H-quinolizin-1-yl)methylamino)-5-methylpyrimidin-2-ylamino)benzonitrile]	< 30000	1480
Cc1nnnn1-c1cc(Nc2ncc(C(F)(F)F)c(NC[C@@H]3CCCN4CCCC[C@H]34)n2)ccc1F [Compound 103, N2-(4-fluoro-3-(5-methyl-1H-tetrazol-1-yl)phenyl)-5-(trifluoromethyl)-N4-(((1S,9aR)-octahydro-1H-quinolizin-1-yl)methyl)pyrimidine-2,4-diamine]	< 30000	26600
CC1(C)Oc2cc(Nc3ncc(F)c(NC[C@@H]4CCCN5CCCC[C@H]45)n3)ccc2N(CCCF)C1=O [Compound 25, 7-(4-(((1S,9aR)-octahydro-1H-quinolizin-1-yl)methylamino)-5-fluoropyrimidin-2-ylamino)-4-(3-fluoropropyl)-2,2-dimethyl-2H-benzo[b][1,4]oxazin-3(4H)-one]	< 30000	853
COc1ccc(Nc2ncc(C(F)(F)F)c(NC[C@@H]3CCCN4CCCC[C@H]34)n2)cc1-n1nnnc1C [Compound 105, 5-(trifluoromethyl)-N4-(((1S,9aR)-octahydro-1H-quinolizin-1-yl)methyl)-N2-(4-methoxy-3-(5-methyl-1H-tetrazol-1-yl)phenyl)pyrimidine-2,4-diamine]	< 30000	11800
Cc1cnc(Nc2ccc(F)c(-n3nnnc3C)c2)nc1NC[C@@H]1CCCN2CCCC[C@H]12 [Compound 62, N2-(4-fluoro-3-(5-methyl-1H-tetrazol-1-yl)phenyl)-N4-(((1S,9aR)-octahydro-1H-quinolizin-1-yl)methyl)-5-methylpyrimidine-2,4-diamine]	< 30000	1870
CC1(C)Oc2cc(Nc3ncc(F)c(NC[C@@H]4CCCN5CCCC[C@H]45)n3)ccc2N(CC2CC2)C1=O [Compound 18, 7-(4-(((1S,9aR)-octahydro-1H-quinolizin-1-yl)methylamino)-5-fluoropyrimidin-2-ylamino)-4-(cyclopropylmethyl)-2,2-dimethyl-2H-benzo[b][1,4]oxazin-3(4H)-one]	< 30000	126

Continued, values first:

IC50 [1] [nM]	IC50 [2] [nM]	Compound
< 30000	1800	Fc1ccc(S(F)(F)(F)(F)F)cc1Nc1ncc(F)c(NC[C@@H]2CCCN3CCCC[C@H]23)n1 [Compound 29, 5-fluoro-N2-(3-pentafluorosulfanyl-6-fluoro-phenyl)-N4-(((1S,9aR)-octahydro-1H-quinolizin-1-yl)methyl)pyrimidine-2,4-diamine]
< 30000	412	COc1cc(Nc2ncc(Cl)c(NC[C@@H]3CCCN4CCCC[C@H]34)n2)cc(OC)c1 [Compound 43, 5-chloro-N4-(((1S,9aR)-octahydro-1H-quinolizin-1-yl)methyl)-N2-(3,5-dimethoxyphenyl)pyrimidine-2,4-diamine]
< 30000	76	Cc1nnnn1-c1ccc(F)c(Nc2ncc(C#N)c(NC[C@@H]3CCCN4CCCC[C@H]34)n2)c1 [Compound 118, 4-(((1S,9aR)-octahydro-1H-quinolizin-1-yl)methylamino)-2-(2-fluoro-5-(5-methyl-1H-tetrazol-1-yl)phenylamino)pyrimidine-5-carbonitrile]
< 30000	18	COc1ccc(Nc2ncc(C#N)c(NC[C@@H]3CCCN4CCCC[C@H]34)n2)cc1-n1nnnc1C [Compound 113, 4-(((1S,9aR)-octahydro-1H-quinolizin-1-yl)methylamino)-2-(4-methoxy-3-(5-methyl-1H-tetrazol-1-yl)phenylamino)pyrimidine-5-carbonitrile]
< 30000	594	N#Cc1cccc(Nc2ncc(F)c(NC[C@@H]3CCCN4CCCC[C@H]34)n2)c1 [Compound 10, 3-(4-(((1S,9aR)-octahydro-1H-quinolizin-1-yl)methylamino)-5-fluoropyrimidin-2-ylamino)benzonitrile]
< 30000	1310	COc1cnc(Nc2cc(C#N)c(C3CC3)cc2F)nc1NC[C@@H]1CCCN2CCCC[C@H]12 [Compound 82, 5-(4-(((1S,9aR)-octahydro-1H-quinolizin-1-yl)methylamino)-5-methoxypyrimidin-2-ylamino)-2-cyclopropyl-4-fluorobenzonitrile]
< 30000	27.6	N#Cc1cnc(Nc2ccc(OCCO)c(-n3cnnn3)c2)nc1NC[C@@H]1CCCN2CCCC[C@H]12 [Compound 140, 2-((4-(2-hydroxyethoxy)-3-(1H-tetrazol-1-yl)phenyl)amino)-4-((((1S,9aR)-octahydro-2H-quinolizin-1-yl)methyl)amino)pyrimidine-5-carbonitrile]
< 30000	35.7	Cc1ccc(Nc2ncc(C#N)c(NC[C@@H]3CCCN4CCCC[C@H]34)n2)cc1C#N [Compound 119, 4-(((1S,9aR)-octahydro-1H-quinolizin-1-yl)methylamino)-2-(3-cyano-4-methylphenylamino)pyrimidine-5-carbonitrile]
< 30000	88.9	COc1ccc(Nc2ncc(F)c(NC[C@@H]3CCCN4CCCC[C@H]34)n2)cc1-n1nnnc1C [Compound 6, 5-fluoro-N4-(((1S,9aR)-octahydro-1H-quinolizin-1-yl)methyl)-N2-(4-methoxy-3-(5-methyl-1H-tetrazol-1-yl)phenyl)pyrimidine-2,4-diamine]
< 30000	3750	Cc1cnc(Nc2ccc3oc(=O)[nH]c3c2)nc1NC[C@@H]1CCCN2CCCC[C@H]12 [Compound 71, 5-(4-(((1S,9aR)-octahydro-1H-quinolizin-1-yl)methylamino)-5-methylpyrimidin-2-ylamino)benzo[d]oxazol-2(3H)-one]
